Data reported in publication PMC11956013, “Structure–Activity Relationships and Evaluation of 2-(Heteroaryl-cycloalkyl)-1H-indoles as Tauopathy Positron Emission Tomography Radiotracers” (Journal of Medicinal Chemistry, 2025).
Several values for one entry are separate records, joined by “and”; a condition that tells them apart may be missing. Identical values can stand only once. Like-named read-outs stand apart in the source and are kept apart here.

Legend:
[1] = biological target: T1, aggregated tau (mixed 3R/4R-tau) in AD brain tissue homogenates (Homo sapiens, UniProt P10636); test: In vitro competition (Ki) assay versus [^3H]7, AD brain tissue homogenate; assay type: binding; details: radioligand [^3H]7 ∼1 nM
Target sequence in this assay (P10636 623-695 limits assumed): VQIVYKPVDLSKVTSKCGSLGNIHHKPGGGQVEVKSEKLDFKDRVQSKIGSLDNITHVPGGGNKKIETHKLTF

[2] = biological target: T2, aggregated tau (4R-tau) in CBD brain tissue homogenates (Homo sapiens, UniProt P10636); parameters: from tissue; host or cells: post-mortem human CBD brain, middle frontal gyrus homogenate; method as in earlier work; details: CBD brain tissue homogenate; radioligand [^3H]3; read-out: Ki versus [^3H]3, CBD tissue; cited from earlier work
T2 sequence (P10636 1-441 isoform P10636-8): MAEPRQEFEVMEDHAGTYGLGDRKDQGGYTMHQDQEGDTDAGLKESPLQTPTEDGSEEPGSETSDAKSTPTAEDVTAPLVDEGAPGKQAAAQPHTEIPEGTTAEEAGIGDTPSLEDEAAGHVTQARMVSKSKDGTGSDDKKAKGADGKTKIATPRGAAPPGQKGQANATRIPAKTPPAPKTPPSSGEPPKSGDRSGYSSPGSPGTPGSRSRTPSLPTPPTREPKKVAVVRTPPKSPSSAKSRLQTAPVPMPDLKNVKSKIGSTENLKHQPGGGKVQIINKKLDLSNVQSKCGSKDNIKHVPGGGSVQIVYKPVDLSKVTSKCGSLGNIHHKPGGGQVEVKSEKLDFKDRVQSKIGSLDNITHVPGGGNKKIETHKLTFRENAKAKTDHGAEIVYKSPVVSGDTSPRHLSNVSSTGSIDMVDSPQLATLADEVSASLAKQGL

[3] = biological target: T3, aggregated tau (4R-tau) in PSP brain tissue homogenates (Homo sapiens, UniProt P10636); parameters: method as in earlier work; details: PSP brain tissue homogenate; radioligand [^3H]3; read-out: Ki versus [^3H]3, PSP tissue; cited from earlier work
T3 construct: from tissue
T3 sequence (P10636 1-441 isoform P10636-8): as above

[4] = biological target: T2, aggregated tau (4R-tau) in CBD brain tissue homogenates; details: read-out: Ki versus [^3H]7, CBD tissue; CBD brain tissue homogenate; radioligand [^3H]7 ∼1 nM
[5] = biological target: T1, aggregated tau (mixed 3R/4R-tau) in AD brain tissue homogenates; parameters: method as in earlier work; details: AD brain tissue homogenate; radioligand [^3H]3; read-out: Ki versus [^3H]3, AD tissue; cited from earlier work
Target sequence in this assay (P10636 623-695 limits assumed): as the sequence (P10636 623-695 limits assumed) above

[6] = biological target: T1, aggregated tau (mixed 3R/4R-tau) in AD brain tissue homogenates; test: In vitro competition (Ki) assay versus [^3H]8, AD brain tissue homogenate; assay type: binding; details: radioligand [^3H]8 ∼1 nM
Target sequence in this assay (P10636 623-708 limits assumed): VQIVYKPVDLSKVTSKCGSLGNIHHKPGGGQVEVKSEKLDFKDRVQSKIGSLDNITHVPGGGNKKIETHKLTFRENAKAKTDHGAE

[7] = biological target: T3, aggregated tau (4R-tau) in PSP brain tissue homogenates; test: In vitro competition (Ki) assay versus [^3H]75, PSP brain tissue homogenate; assay type: binding; details: PSP brain tissue homogenate; radioligand [^3H]75; n = 3, mean ± SD
[8] = biological target: T3, aggregated tau (4R-tau) in PSP brain tissue homogenates; test: In vitro competition (Ki) assay versus [^3H]8, PSP brain tissue homogenate; assay type: binding; details: radioligand [^3H]8 ∼1 nM
[9] = biological target: T3, aggregated tau (4R-tau) in PSP brain tissue homogenates; test: In vitro competition (Ki) assay versus [^3H]7, PSP brain tissue homogenate; assay type: binding; details: radioligand [^3H]7 ∼1 nM
[10] = biological target: T2, aggregated tau (4R-tau) in CBD brain tissue homogenates; test: In vitro competition (Ki) assay versus [^3H]75, CBD brain tissue homogenate; assay type: binding; parameters: from tissue; host or cells: post-mortem human CBD brain, middle frontal gyrus homogenate; details: CBD brain tissue homogenate; radioligand [^3H]75; n = 3, mean ± SD
[11] = biological target: T4, aggregated tau (3R-tau) in PiD brain tissue homogenates (Homo sapiens, UniProt P10636); test: In vitro competition (Ki) assay versus [^3H]75, PiD brain tissue homogenate; assay type: binding; details: PiD brain tissue homogenate; radioligand [^3H]75; n = 3, mean ± SD
T4 construct: or only 3R-tau aggregates (PiD middle frontal gyrus); from tissue; host or cells: post-mortem human PiD brain, middle frontal gyrus homogenate
T4 sequence (P10636 1-410 isoform P10636-5): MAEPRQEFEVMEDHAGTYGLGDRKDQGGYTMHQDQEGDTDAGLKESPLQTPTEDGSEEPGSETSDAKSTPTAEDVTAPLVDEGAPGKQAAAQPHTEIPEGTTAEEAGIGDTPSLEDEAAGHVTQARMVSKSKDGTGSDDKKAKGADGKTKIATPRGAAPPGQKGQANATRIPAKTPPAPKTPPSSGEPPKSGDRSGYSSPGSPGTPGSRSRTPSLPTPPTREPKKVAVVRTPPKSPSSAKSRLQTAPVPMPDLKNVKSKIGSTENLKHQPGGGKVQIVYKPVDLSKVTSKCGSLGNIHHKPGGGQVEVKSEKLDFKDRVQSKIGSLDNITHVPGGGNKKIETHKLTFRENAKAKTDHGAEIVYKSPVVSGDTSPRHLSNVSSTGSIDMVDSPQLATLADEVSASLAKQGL

[12] = biological target: T2, aggregated tau (4R-tau) in CBD brain tissue homogenates; details: read-out: Ki versus [^3H]8, CBD tissue; CBD brain tissue homogenate; radioligand [^3H]8 ∼1 nM
[13] = biological target: T1, aggregated tau (mixed 3R/4R-tau) in AD brain tissue homogenates; test: In vitro competition (Ki) assay versus [^3H]75, AD brain tissue homogenate; assay type: binding; details: AD brain tissue homogenate; radioligand [^3H]75; n = 3, mean ± SD
Target sequence in this assay (P10636 623-695 limits assumed): as the sequence (P10636 623-695 limits assumed) above

[14] = biological target: Ca2+ channel (L, dihydropyridine site) (Rattus norvegicus, UniProt P22002); test: Eurofins panel: Ca2+ channel (L, dihydropyridine site) (antagonist radioligand); details: reference compound
CYP2C19 = CYP2C19 (Homo sapiens, UniProt P33261); details: In Vitro Metabolism; HLM, Omeprazole substrate; reference compound
Chain of CYP2C19 (P33261 whole entry): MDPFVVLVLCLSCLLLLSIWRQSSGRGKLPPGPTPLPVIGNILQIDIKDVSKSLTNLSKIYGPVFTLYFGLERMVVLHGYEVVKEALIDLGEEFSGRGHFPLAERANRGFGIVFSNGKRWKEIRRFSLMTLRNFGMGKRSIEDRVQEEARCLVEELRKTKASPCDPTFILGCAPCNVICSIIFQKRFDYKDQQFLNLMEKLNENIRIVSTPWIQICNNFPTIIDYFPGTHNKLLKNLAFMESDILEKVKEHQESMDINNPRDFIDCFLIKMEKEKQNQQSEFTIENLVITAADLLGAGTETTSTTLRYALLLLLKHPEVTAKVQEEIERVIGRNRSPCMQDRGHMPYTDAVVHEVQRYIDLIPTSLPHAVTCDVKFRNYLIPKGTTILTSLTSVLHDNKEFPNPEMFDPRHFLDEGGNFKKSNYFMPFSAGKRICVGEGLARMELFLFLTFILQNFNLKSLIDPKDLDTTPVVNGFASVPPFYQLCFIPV

CYP2D6 = CYP2D6 (Homo sapiens, UniProt P10635); details: In Vitro Metabolism; HLM, Dextromethorphan substrate; reference compound
Chain of CYP2D6 (P10635 whole entry): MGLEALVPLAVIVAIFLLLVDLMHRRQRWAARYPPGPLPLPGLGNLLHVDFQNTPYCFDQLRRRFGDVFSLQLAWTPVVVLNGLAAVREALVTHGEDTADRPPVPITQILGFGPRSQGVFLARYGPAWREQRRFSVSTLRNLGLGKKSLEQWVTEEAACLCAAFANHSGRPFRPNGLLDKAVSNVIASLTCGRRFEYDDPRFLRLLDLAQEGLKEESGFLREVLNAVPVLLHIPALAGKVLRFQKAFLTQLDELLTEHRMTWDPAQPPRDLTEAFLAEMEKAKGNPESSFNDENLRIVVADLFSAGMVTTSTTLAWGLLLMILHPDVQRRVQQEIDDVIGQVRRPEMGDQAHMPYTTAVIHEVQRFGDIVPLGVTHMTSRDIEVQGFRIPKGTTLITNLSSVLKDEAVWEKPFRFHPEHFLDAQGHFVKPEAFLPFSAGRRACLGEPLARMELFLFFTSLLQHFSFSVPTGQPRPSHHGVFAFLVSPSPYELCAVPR

D2L (h) = D2L (h) (Homo sapiens, UniProt P14416); details: Specific binding; reference compound
Chain of D2L (h) (P14416 whole entry): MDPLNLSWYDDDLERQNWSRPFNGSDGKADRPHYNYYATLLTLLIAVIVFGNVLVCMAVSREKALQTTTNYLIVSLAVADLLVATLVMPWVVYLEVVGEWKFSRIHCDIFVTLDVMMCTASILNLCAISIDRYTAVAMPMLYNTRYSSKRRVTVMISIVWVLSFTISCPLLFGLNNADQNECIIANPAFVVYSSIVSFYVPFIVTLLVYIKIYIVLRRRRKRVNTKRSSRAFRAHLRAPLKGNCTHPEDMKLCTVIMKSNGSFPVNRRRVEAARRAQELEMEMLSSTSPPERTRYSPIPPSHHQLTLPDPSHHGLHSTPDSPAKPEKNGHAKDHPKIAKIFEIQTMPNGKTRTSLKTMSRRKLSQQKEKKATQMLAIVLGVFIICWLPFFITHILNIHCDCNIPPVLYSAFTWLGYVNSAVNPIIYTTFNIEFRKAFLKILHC

[15] = biological target: Non-Selective Rat Glycine Ion Channel (Rattus norvegicus, UniProt P07727); test: Non-Selective Rat Glycine Ion Channel Strychnine Mass Spectrometry Binding Assay, Cerep
ATPase (Na+/K+) = test: Eurofins panel: ATPase (Na+/K+) enzymatic activity; assay type: biochemical; details: reference compound, read-out: Concurrent IC50, Enzymatic activity
M2 (h) = M2 (h) (Homo sapiens, UniProt P08172); details: Specific binding; reference compound
Chain of M2 (h) (P08172 whole entry): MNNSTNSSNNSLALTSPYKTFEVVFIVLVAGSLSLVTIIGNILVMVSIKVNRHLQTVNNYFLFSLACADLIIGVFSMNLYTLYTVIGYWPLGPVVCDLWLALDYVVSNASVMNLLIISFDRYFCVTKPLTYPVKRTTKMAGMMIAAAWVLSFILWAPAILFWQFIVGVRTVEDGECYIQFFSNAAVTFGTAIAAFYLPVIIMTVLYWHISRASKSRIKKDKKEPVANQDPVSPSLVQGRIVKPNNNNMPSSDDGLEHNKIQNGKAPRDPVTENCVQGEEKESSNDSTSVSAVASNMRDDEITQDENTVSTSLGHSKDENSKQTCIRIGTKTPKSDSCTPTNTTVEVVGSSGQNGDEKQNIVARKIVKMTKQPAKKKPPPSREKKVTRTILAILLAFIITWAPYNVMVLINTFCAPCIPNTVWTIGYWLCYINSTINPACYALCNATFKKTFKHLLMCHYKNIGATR

D1 (h) = D1 (h) (Homo sapiens, UniProt P21728); details: Specific binding; reference compound
M3 (h) = M3 (h) (Homo sapiens, UniProt P20309); details: Specific binding; reference compound
M4 (h) = M4 (h) (Homo sapiens, UniProt P08173); test: M4 (h) (antagonist radioligand), Eurofins assay 96; details: Specific binding; reference compound
M5 (h) = biological target: T5, M5 (h) (Homo sapiens, UniProt P08912); test: M5 (h) (antagonist radioligand), Eurofins assay 97; details: Specific binding, reference compound
T5 sequence (P08912 1-532): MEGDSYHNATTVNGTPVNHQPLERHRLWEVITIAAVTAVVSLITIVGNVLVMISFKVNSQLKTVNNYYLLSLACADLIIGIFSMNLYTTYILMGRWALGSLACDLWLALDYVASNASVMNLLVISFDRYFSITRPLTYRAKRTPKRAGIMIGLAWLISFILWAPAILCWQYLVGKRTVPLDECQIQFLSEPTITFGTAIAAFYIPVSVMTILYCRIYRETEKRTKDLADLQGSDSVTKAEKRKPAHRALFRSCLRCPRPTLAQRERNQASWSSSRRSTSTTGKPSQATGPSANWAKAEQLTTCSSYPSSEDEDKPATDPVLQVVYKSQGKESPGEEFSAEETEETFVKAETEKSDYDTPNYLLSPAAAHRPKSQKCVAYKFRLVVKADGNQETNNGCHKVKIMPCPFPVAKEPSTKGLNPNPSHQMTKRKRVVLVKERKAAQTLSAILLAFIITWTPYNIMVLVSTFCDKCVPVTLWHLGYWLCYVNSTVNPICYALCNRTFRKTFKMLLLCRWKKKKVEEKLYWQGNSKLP

[16] = biological target: COMT (catechol- O-methyl transferase); test: COMT (catechol- O-methyl transferase), Eurofins assay 457; assay type: biochemical; details: Enzymatic activity; reference compound; read-out: Concurrent IC50
CYP1A2 = CYP1A2 (Homo sapiens, UniProt P05177); details: In Vitro Metabolism; HLM, Tacrine substrate; reference compound
[17] = biological target: T2, aggregated tau (4R-tau) in CBD brain tissue homogenates; test: biochemical
[18] = biological target: T3, aggregated tau (4R-tau) in PSP brain tissue homogenates; test: In vitro competition (Ki) assay versus [^3H]3, PSP brain tissue homogenate; assay type: binding; details: radioligand [^3H]3 ∼1 nM
[19] = biological target: T2, aggregated tau (4R-tau) in CBD brain tissue homogenates; test: In vitro competition (Ki) assay versus [^3H]3, CBD brain tissue homogenate; assay type: binding; parameters: from tissue; host or cells: post-mortem human CBD brain, middle frontal gyrus homogenate; details: radioligand [^3H]3 ∼1 nM
[20] = biological target: T1, aggregated tau (mixed 3R/4R-tau) in AD brain tissue homogenates; test: In vitro competition (Ki) assay versus [^3H]3, AD brain tissue homogenate; assay type: binding; details: radioligand [^3H]3 ∼1 nM
Target sequence in this assay (P10636 623-695 limits assumed): as the sequence (P10636 623-695 limits assumed) above

MT1 (ML1A) (h) = MT1 (ML1A) (h) (Homo sapiens, UniProt P48039); test: Eurofins panel: MT1 (ML1A) (h) (agonist radioligand); assay type: binding; parameters: purchased Eurofins (CNS SafetyScreen panel, contract assay) assay 1538; details: reference compound
Chain of MT1 (ML1A) (h) (P48039 whole entry): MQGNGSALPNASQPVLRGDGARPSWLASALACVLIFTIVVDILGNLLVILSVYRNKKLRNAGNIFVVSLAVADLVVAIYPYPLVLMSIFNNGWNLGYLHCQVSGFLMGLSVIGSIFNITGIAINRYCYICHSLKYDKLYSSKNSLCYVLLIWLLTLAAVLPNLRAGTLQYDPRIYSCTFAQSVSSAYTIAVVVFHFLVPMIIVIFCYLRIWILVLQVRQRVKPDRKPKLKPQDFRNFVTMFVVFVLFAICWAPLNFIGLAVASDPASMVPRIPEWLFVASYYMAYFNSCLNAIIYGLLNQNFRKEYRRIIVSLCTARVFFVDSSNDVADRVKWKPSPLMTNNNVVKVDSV

GR (h) = GR (h) (Homo sapiens, UniProt P04150); details: Specific binding; reference compound
Chain of GR (h) (P04150 whole entry): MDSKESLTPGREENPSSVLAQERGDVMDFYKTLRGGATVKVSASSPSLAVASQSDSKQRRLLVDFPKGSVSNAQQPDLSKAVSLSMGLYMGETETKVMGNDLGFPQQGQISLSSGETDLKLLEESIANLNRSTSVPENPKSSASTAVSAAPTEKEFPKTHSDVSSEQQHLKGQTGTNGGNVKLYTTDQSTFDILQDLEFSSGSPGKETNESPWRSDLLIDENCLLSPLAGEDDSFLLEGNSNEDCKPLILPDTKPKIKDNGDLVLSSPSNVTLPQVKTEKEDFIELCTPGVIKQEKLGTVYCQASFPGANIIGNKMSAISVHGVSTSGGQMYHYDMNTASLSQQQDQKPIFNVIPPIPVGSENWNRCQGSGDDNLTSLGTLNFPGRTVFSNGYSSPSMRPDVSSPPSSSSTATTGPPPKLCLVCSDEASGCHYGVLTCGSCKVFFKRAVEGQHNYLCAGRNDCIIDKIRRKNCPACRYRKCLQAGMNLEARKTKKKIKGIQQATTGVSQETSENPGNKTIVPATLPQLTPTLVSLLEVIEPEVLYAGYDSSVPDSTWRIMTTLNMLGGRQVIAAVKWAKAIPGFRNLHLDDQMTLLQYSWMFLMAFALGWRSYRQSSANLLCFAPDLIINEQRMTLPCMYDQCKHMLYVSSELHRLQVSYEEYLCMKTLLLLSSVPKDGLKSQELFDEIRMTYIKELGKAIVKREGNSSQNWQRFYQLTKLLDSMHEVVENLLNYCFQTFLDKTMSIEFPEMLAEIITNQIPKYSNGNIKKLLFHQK

[21] = biological target: Adenosine Guinea Pig Transporter (Cavia porcellus, UniProt H0V4R7); test: Adenosine Guinea Pig Transporter Mass Spectrometry Binding (Antagonist Ligand) Assay, Cerep; details: reference compound
Chain of Adenosine Guinea Pig Transporter (H0V4R7 1-461): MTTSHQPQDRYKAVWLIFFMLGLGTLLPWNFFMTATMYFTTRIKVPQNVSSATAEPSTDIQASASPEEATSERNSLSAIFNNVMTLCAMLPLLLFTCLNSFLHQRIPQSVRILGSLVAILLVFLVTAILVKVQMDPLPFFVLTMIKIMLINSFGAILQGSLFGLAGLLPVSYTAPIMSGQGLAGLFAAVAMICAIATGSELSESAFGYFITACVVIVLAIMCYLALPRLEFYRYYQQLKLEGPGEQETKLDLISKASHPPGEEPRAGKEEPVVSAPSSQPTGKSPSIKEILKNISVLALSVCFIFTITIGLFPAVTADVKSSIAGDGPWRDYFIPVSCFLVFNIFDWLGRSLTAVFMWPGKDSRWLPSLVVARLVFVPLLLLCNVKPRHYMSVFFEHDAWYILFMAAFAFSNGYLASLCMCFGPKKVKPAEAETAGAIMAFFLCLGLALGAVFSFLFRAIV

Fc1ccc2cc(-c3cnc(N4CCOCC4)nc3)[nH]c2c1 [Compound 8]
Ki [1]: 8.4 nM
Ki [2]: 19 nM
Ki [3]: 18 nM
Ki [4]: 11 nM
Ki [5]: 22 nM
Ki [6]: 7.7 ± 0.6 nM
Ki [7]: ~15 nM and 15 nM
Ki [8]: 8.5 ± 1.2 nM
Ki [9]: 13 nM
Ki [10]: 16 nM
Ki [11]: ~24 nM and 24 nM
Ki [12]: 11 ± 1.3 nM
Ki [13]: ~15 nM and 15 nM

CCOC(=O)C1=C(C)NC(C)=C(C(=O)OC)C1c1cccc([N+](=O)[O-])c1 (stereo not drawn) [nitrendipine]
nH, Specific binding [14]: 1.077

CCN(CC)CC#CCOC(=O)C(O)(c1ccccc1)C1CCCCC1 (stereo not drawn) [Oxybutynin]
nH (CYP2C19): 0.7474

C=C[C@H]1C[N@@]2CC[C@H]1C[C@@H]2[C@@H](O)c1ccnc2ccc(OC)cc12 [Quinidine]
nH (CYP2D6): 0.9681

CC(C)(C)[C@]1(O)CCN2C[C@H]3c4ccccc4CCc4cccc(c43)[C@@H]2C1 [butaclamol]
nH (D2L (h)): 0.9951

N=C(N)N/N=C/c1c(Cl)cccc1Cl [guanabenz]
nH, Specific binding [15]: 1.024

C[C@@H]1O[C@@H](O[C@H]2C[C@@H](O)[C@]3(CO)[C@H]4[C@H](O)C[C@]5(C)[C@@H](C6=CC(=O)OC6)CC[C@]5(O)[C@@H]4CC[C@]3(O)C2)[C@H](O)[C@H](O)[C@H]1O [ouabain]
IC50 (ATPase (Na+/K+)): 569 nM

COc1ccccc1CNCCCCCCNCCCCCCCCNCCCCCCNCc1ccccc1OC [methoctramine]
nH (M2 (h)): 1.382

CN1CCc2cc(Cl)c(O)cc2[C@@H](c2ccccc2)C1 [SCH 23390]
nH (D1 (h)): 1.03

C[N+]1(C)CCC(OC(=O)C(c2ccccc2)c2ccccc2)CC1.[I-] [Compound 4-DAMP]
nH (M3 (h)): 1.577
nH (M4 (h)): 1.959
nH (M5 (h)): 1.178
IC50 (M5 (h); read-out: Concurrent IC50): 2.35 nM
Ki (M5 (h); read-out: Concurrent Ki): 1.17 nM

Ro 41-0960
IC50 [16]: 23 nM

Cc1nc2c([nH]1)c(=O)n(C)c(=O)n2Cc1ccco1 [Furafylline]
nH (CYP1A2): 0.9709

O[C@H]1CCN(c2ccc(-c3cc4ccc(F)cc4[nH]3)cn2)C1 [Compound 9, reference compound]
Ki [1]: 11 nM
Ki [17]: 15 nM
Ki [6]: 10 nM
Ki [18]: 37 nM
Ki [8]: 11 nM
Ki [19]: 40 nM
Ki [9]: 8.9 nM
Ki [20]: 33 nM

COc1ccc2[nH]cc(CCNC(C)=O)c2c1 [melatonin]
nH, Specific binding (MT1 (ML1A) (h)): 1.177

C[C@@H]1C[C@H]2[C@@H]3CCC4=CC(=O)C=C[C@]4(C)[C@@]3(F)[C@@H](O)C[C@]2(C)[C@@]1(O)C(=O)CO [dexamethasone]
nH (GR (h)): 1.051

COc1cc(C(=O)OCCCN2CCCN(CCCOC(=O)c3cc(OC)c(OC)c(OC)c3)CC2)cc(OC)c1OC [Dilazep]
nH, Specific binding [21]: 1.337
